Our source for the EC50 and IC50 values is US9718826B2, “Imidazopyrazinone derivatives” (Merck Patent GmbH, priority 2013, dated 2017).

SMILES strings stand for the structures.

T4 sequence (O95271 1023-1327): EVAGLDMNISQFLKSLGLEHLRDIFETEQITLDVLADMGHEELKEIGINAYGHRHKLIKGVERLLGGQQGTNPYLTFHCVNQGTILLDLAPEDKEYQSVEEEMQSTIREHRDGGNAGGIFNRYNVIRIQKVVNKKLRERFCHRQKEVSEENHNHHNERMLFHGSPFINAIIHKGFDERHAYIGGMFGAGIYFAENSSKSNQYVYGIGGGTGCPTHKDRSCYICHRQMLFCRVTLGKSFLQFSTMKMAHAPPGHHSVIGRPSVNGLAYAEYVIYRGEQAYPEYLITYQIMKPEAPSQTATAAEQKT
T2 sequence (P09874 whole entry): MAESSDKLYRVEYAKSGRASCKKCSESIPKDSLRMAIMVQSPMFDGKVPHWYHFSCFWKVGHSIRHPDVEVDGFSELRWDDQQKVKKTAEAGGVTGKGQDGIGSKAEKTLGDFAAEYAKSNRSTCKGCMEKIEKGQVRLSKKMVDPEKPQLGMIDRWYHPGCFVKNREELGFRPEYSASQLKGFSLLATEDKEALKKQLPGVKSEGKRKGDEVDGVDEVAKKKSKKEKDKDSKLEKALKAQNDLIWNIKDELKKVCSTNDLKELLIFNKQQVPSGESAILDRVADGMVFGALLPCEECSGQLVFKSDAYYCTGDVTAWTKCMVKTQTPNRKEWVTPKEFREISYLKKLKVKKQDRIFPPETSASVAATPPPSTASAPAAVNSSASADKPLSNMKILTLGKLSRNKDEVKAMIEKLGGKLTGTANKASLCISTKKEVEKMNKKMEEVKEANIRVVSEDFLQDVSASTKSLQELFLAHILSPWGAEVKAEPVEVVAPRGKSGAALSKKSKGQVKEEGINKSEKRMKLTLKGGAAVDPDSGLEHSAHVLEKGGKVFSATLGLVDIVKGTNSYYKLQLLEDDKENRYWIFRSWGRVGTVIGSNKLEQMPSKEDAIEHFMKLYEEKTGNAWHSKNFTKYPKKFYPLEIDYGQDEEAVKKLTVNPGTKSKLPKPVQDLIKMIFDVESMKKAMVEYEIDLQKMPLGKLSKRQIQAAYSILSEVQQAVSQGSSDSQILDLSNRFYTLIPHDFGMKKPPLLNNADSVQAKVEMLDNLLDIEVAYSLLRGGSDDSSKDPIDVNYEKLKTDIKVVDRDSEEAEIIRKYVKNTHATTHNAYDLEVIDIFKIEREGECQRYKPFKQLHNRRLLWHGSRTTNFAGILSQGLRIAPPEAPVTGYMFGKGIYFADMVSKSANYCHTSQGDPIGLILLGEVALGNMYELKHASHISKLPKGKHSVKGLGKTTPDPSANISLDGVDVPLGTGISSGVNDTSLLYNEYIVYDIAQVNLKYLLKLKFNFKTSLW

The test system of one test is Tankyrases. Briefly: Cellular inhibition of Tankyrase, Axin2 level in DLD1 cells (Luminex). It counts as cell-based. The conditions noted are these: Axin2 increase, 24 hours, read-out: EC50 [M] TNKS cellular assay. On the procedure: Measurement of Cellular Inhibition of Tankyrase
Since Tankyrases have been described to modulate cellular level of Axin2 (Huang et al., 2009; Nature) the increase of Axin2 level is used as read-out for determination of cellular inhibition of Tankyrases in a Luminex based assay.
Cells of the colon carcinoma cell line DLD1 are plated in 96 well plates with 1.5×10^4 cells per well. Next day, cells are treated with a serial dilution of test compound in seven steps as triplicates with a final DMSO concentration of 0.3%. After 24 hours, cells are lysed in lysis buffer (20 mM Tris/HCl pH 8.0, 150 mM NaCl, 1% NP40, 10% Glycerol) and lysates are cleared by centrifugation through a 96 well filter plate (0.65 μm). Axin2 protein is isolated from cell lysates by incubation with a monoclonal anti-Axin2 antibody (R&D Systems #MAB6078) that is bound to fluorescent carboxybeads. Then, bound Axin2 is specifically detected with a polyclonal anti-Axin2 antibody (Cell Signaling #2151) and an appropriate PE-fluorescent secondary antibody. The amount of isolated Axin2 protein is determined in a Luminex^200 machine (Luminex Corporation) according to the manufacturer's instruction by counting 100 events per well. Inhibition of Tankyrase by test compounds results in higher levels of Axin2 which directly correlates with an increase of detectable fluorescence. As controls cells are treated with solvent alone (neutral control) and with a Tankyrase reference inhibitor IWR-2 (3E-06 M) which refers as control for maximum increase of Axin2. For analysis, the obtained data are normalized against the untreated solvent control and fitted for determination of the EC50 values using the Assay Explorer software (Accelrys).
In general, EC50 refers to the concentration needed to bring the measured effect to its halfway point. As for `CC(C)(C)c1ccc(-c2cn3cncc3c(=O)[nH]2)cc1` [Compound A2, 6-(4-tert-Butyl-phenyl)-7H-imidazo[1,5-a]pyrazin-8-one], the EC50 was 3e-07 to 3e-06 M.
As for `Cc1ncc2c(=O)[nH]c(-c3ccc(C(C)(C)C)cc3)cn12` [Compound A7, 6-(4-tert-butyl-phenyl)-3-methyl-7H-imidazo[1,5-a]pyrazin-8-one], the EC50 was < 3e-07 M.
The same measure, in the same setting: the same measure for `Cc1ncc2c(=O)[nH]c(-c3ccc(C(C)(C)O)cc3)cn12` [Compound A8, 6-[4-(1-hydroxy-1-methyl-ethyl)-phenyl]-3-methyl-7H-imidazo[1,5-a]pyrazin-one]: 3e-07 to 3e-06 M.

For another test, the target named is T1, GST-tagged Tankyrase-2 (873-1166 aa) (Homo sapiens, UniProt Q9H2K2).
T1 construct: GST-tagged Tankyrase-2 (873-1166 aa)
T1 sequence (Q9H2K2 873-1166): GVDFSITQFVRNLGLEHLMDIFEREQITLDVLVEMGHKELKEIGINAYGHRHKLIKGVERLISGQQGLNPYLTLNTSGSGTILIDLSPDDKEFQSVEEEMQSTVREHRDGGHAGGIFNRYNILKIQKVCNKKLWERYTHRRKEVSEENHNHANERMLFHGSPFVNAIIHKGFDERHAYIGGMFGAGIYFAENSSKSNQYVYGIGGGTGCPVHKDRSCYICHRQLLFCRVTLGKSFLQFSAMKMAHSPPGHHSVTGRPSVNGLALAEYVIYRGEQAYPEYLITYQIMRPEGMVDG
Description: Tankyrase 2 autoparsylation assay (HTRF). It counts as biochemical. The conditions noted are these: read-out: IC50 TNKS2 enzyme assay. Here is the method: (§1) Biochemical activity testing of Tankyrase 1 and 2: Autoparsylation assay
(§2) The autoparsylation assay is run in two steps: the enzymatic reaction in which GST-tagged Tankyrase-1, resp Tankyrase-2 transferred biotinylated ADP-ribose to itself from biotinylated NAD as co-substrate and the detection reaction where a time resolved FRET between cryptate labelled anti-GST bound to the GST tag of the enzyme and Xlent® labelled-streptavidin bound the biotin-parsylation residue is analysed. The autoparsylation activity was detectable directly via the increase in HTRF signal.
(§3) The autoparsylation assay is performed as 384-well HTRF® (Cisbio, Codolet, France) assay format in Greiner low volume nb 384-well microtiter plates and is used for high throughput screen. 250 nM GST-tagged Tankyrase-1 (1023-1327 aa), respectively about 250 nM GST-tagged Tankyrase-2 (873-1166 aa) and 5 μM bio-NAD (Biolog, Life science Inst., Bremen, Germany) as co-substrate are incubated in a total volume of 5 μl (50 mM HEPES, 4 mM Mg-chloride, 0.05% Pluronic F-68, 1.4 mM DTT, 0.5% DMSO, pH 7.7) in the absence or presence of the test compound (10 dilution concentrations) for 90 min at 30° C. The reaction is stopped by the addition of 1 μl 50 mM EDTA solution. 2 μl of the detection solution (1.6 μM SA-Xlent® (Cisbio, Codolet, France), 7.4 nM Anti-GST-K® (Eu-labelled anti-GST, Cisbio, Codolet, France) in 50 mM HEPES, 800 mM KF, 0.1% BSA, 20 mM EDTA, 0.1% CHAPS, pH 7.0) are added. After 1 h incubation at room temperature the HTRF is measured with an Envision multimode reader (Perkin Elmer LAS Germany GmbH) at excitation wavelength 340 nm (laser mode) and emission wavelengths 615 nm and 665 nm. The ratio of the emission signals is determined. The full value used is the inhibitor-free reaction. The pharmacological zero value used is XAV-939 (Tocris) in a final concentration of 5 μM. The inhibitory values (IC50) are determined using either the program Symyx Assay Explorer® or Condosseo® from GeneData.
In general, IC50 refers to the concentration at which inhibition is half-maximal. With `Cc1ccc(-c2cn3cncc3c(=O)[nH]2)cc1` [Compound A1, 6-p-tolyl-7H-imidazo[1,5-a]pyrazin-8-one], the concentration for half-maximal inhibition (IC50) was 300 to 3000 nM.
On to `CC(C)(C)c1ccc(-c2cn3cncc3c(=O)[nH]2)cc1` [Compound A2, 6-(4-tert-Butyl-phenyl)-7H-imidazo[1,5-a]pyrazin-8-one], for which the half-maximal inhibitory concentration (IC50) fell in the range of 300 to 3000 nM.
As for `Cc1ncc2c(=O)[nH]c(-c3ccc(C(C)(C)C)cc3)cn12` [Compound A7, 6-(4-tert-butyl-phenyl)-3-methyl-7H-imidazo[1,5-a]pyrazin-8-one], the IC50 is 300 to 3000 nM.

Another test has as its target T2, His-tagged Parp-1 (Homo sapiens, UniProt P09874).
T2 construct: purchased Enzo Life Sciences GmbH, Lörrach, Germany
Description: PARP-1 autoparsylation assay (HTRF). The format is biochemical. The conditions noted are these: PARP-1 autoparsylation HTRF. An excerpt: Description of the PARP1 Assay
Biochemical Activity Testing of PARP-1: Autoparsylation Assay
The autoparsylation assay is run in two steps: the enzymatic reaction in which His-tagged Parp-1 transfers biotinylated ADP-ribose/ADP-ribose to itself from biotinylated NAD/NAD as co-substrate and the detection reaction where a time resolved FRET between cryptate labelled anti-His antibody bound to the His tag of the enzyme and Xlent® labelled-streptavidin bound the biotin-parsylation residue is analysed. The autoparsylation activity is detectable directly via the increase in HTRF signal.
The autoparsylation assay is performed as 384-well HTRF® (Cisbio, Codolet, France) assay format in Greiner low volume nb 384-well microtiter plates. 35 nM His-tagged Parp-1 (human, recombinant, Enzo Life Sciences GmbH, Lörrach, Germany) and a mixture of 125 nM bio-NAD (Biolog, Life science Inst., Bremen, Germany) and 800 nM NAD as co-substrate are incubated in a total volume of 6 μl (100 mM Tris/HCl, 4 mM Mg-chloride, 0.01% IGEPAL® CA630, 1 mM DTT, 0.5% DMSO, pH 8, 13 ng/μl activated DNA (BPS Bioscience, San Diego, US)) in the absence or presence of the test compound (10 dilution concentrations) for 150 min at 23° C. The reaction is stopped by the addition of 4 μl of the Stop/detection solution (70 nM SA-Xlent® (Cisbio, Codolet, France), 2.5 nM Anti-His-K® (Eu-labelled anti-His, Cisbio, Codolet, France) in 50 mM HEPES, 400 mM KF, 0.1% BSA, 20 mM EDTA, pH 7.0). After 1 h incubation at room temperature the HTRF is measured with an Envision multimode reader (Perkin Elmer LAS Germany GmbH) at excitation wavelength 340 nm (laser mode) and emission wavelengths 615 nm and 665 nm. The ratio of the emission signals is determined. The full value used is the inhibitor-free reaction. The pharmacological zero value used is Olaparib (LClabs, Woburn, US) in a final concentration of 1 μM. The inhibitory values (IC50) are determined using either the program Symyx Assay Explorer® or Condosseo® from GeneData.
The compound `Cc1ccc(-c2cn3cncc3c(=O)[nH]2)cc1` [Compound A1, 6-p-tolyl-7H-imidazo[1,5-a]pyrazin-8-one] came in with a concentration for half-maximal inhibition (IC50) of 3000 to 50000 nM.
For `CC(C)(C)c1ccc(-c2cn3cncc3c(=O)[nH]2)cc1` [Compound A2, 6-(4-tert-Butyl-phenyl)-7H-imidazo[1,5-a]pyrazin-8-one], the IC50 lay in the range of 3000 to 50000 nM.

In the next test the target is T3, GST-tagged Tnks-1 (1023-1327 aa) (Homo sapiens, UniProt O95271).
T3 construct: GST-tagged Tnks-1 (1023-1327 aa, prepared in-house); made in house
T3 sequence (O95271 1023-1327): as the sequence (O95271 1023-1327) above
Description: TNKS1 activity ELISA (autoparsylation assay). The format is biochemical.
Settings: not given
Here is the method: (§4) Description of the TNKS1 and TNKS2 ELISA Assay
(§5) Biochemical Activity Testing of TNKS 1 and 2: Activity ELISA (Autoparsylation Assay)
(§6) For analysis of autoparsylation activity of TNKS 1 and 2 an activity ELISA is performed: In the first step GST tagged TNKS is captured on a Glutathione coated plate. Then the activity assay with biotinylated NAD is performed in the absence/presence of the compounds. During the enzymatic reaction GST tagged TNKS transfers biotinylated ADP-ribose to itself from biotinylated NAD as co-substrate. For the detection streptavidin-HRP conjugate is added that binds to the biotinylated TNKS and is thereby captured to the plates. The amount of biotinylated resp. autoparsylated TNKS is detected with a luminescence substrate for HRP. The level of the luminescence signal correlates directly with the amount of autoparsylated TNKS and therefore with activity of TNKS.
(§7) The activity ELISA is performed in 384 well Glutathione coated microtiter plates (Express capture Glutathione coated plate, Biocat, Heidelberg, Germany). The plates are pre-equilibrated with PBS. Then the plates are incubated with 50 μl 20 ng/well GST-tagged Tnks-1 (1023-1327 aa, prepared in-house), respectively GST-tagged Tnks-2 (873-1166 aa, prepared in-house) in assay buffer (50 mM HEPES, 4 mM Mg-chloride, 0.05% Pluronic F-68, 2 mM DTT, pH 7.7) overnight at 4° C. The plates are washed 3 times with PBS-Tween-20. The wells are blocked by incubation at room temperature for 20 minutes with 50 μl blocking buffer (PBS, 0.05% Tween-20, 0.5% BSA). Afterwards the plates are washed 3 times with PBS-Tween-20. The enzymatic reaction is performed in 50 μl reaction solution (50 mM HEPES, 4 mM Mg-chloride, 0.05% Pluronic F-68, 1.4 mM DTT, 0.5% DMSO, pH 7.7) with 10 μM bio-NAD (Biolog, Life science Inst., Bremen, Germany) as co-substrate in the absence or presence of the test compound (10 dilution concentrations) for 1 hour at 30° C. The reaction is stopped by 3 times washing with PBS-Tween-20. For the detection 50 μl of 20 ng/μl Streptavidin, HRP conjugate (MoBiTec, Göttingen, Germany) in PBS/0.05% Tween-20/0.01% BSA are added and the plates are incubated for 30 minutes at room temperature. After three times washing with PBS-Tween-20 50 μl of SuperSignal ELISA Femto Maximum sensitivity substrate solution (ThermoFisherScientific (Pierce), Bonn, Germany) are added. Following a 1 minute incubation at room temperature luminescence signals are measured with an Envision multimode reader (Perkin Elmer LAS Germany GmbH) at 700 nm. The full value used is the inhibitor-free reaction. The pharmacological zero value used is XAV-939 (Tocris) in a final concentration of 5 μM. The inhibitory values (IC50) are determined using either the program Symyx Assay Explorer® or Condosseo® from GeneData.
In the case of `Cc1ccc(-c2cn3cncc3c(=O)[nH]2)cc1` [Compound A1, 6-p-tolyl-7H-imidazo[1,5-a]pyrazin-8-one], the IC50 lay within 300 to 3000 nM.
For the compound `CC(C)(C)c1ccc(-c2cn3cncc3c(=O)[nH]2)cc1` [Compound A2, 6-(4-tert-Butyl-phenyl)-7H-imidazo[1,5-a]pyrazin-8-one], the half-maximal inhibitory concentration (IC50) is < 300 nM.
As to `Cc1ncc2c(=O)[nH]c(-c3ccc(C(C)(C)C)cc3)cn12` [Compound A7, 6-(4-tert-butyl-phenyl)-3-methyl-7H-imidazo[1,5-a]pyrazin-8-one], the IC50 is < 300 nM.

The next test addresses T4, GST-tagged Tankyrase-1 (1023-1327 aa) (Homo sapiens, UniProt O95271).
T4 construct: GST-tagged Tankyrase-1 (1023-1327 aa)
Briefly: Tankyrase 1 autoparsylation assay (HTRF). It counts as biochemical. The following applies: read-out: IC50 TNKS1 enzyme assay. On the procedure:
as §1, §2, §3
On the technique in general: TR-FRET usually uses a lanthanide donor and a delayed reading to cut background.
Regarding `Cc1ccc(-c2cn3cncc3c(=O)[nH]2)cc1` [Compound A1, 6-p-tolyl-7H-imidazo[1,5-a]pyrazin-8-one], the concentration for half-maximal inhibition (IC50) was in the range of 300 to 3000 nM.
As to `CC(C)(C)c1ccc(-c2cn3cncc3c(=O)[nH]2)cc1` [Compound A2, 6-(4-tert-Butyl-phenyl)-7H-imidazo[1,5-a]pyrazin-8-one], the IC50 was < 300 nM.
With `Cc1ncc2c(=O)[nH]c(-c3ccc(C(C)(C)C)cc3)cn12` [Compound A7, 6-(4-tert-butyl-phenyl)-3-methyl-7H-imidazo[1,5-a]pyrazin-8-one], the IC50 fell in the range of 300 to 3000 nM.

The target in the next test is T5, GST-tagged Tnks-2 (873-1166 aa) (Homo sapiens, UniProt Q9H2K2).
T5 construct: GST-tagged Tnks-2 (873-1166 aa, prepared in-house); made in house
T5 sequence (Q9H2K2 873-1166): as the sequence (Q9H2K2 873-1166) above
Description: TNKS2 activity ELISA (autoparsylation assay). The format is biochemical.
Settings: not given
Here is the method:
as §4, §5, §6, §7
For orientation: In an ELISA, binding on a coated surface is turned into a signal by an enzyme label.
The compound `Cc1ccc(-c2cn3cncc3c(=O)[nH]2)cc1` [Compound A1, 6-p-tolyl-7H-imidazo[1,5-a]pyrazin-8-one] had an IC50 of 300 to 3000 nM.
Consider `CC(C)(C)c1ccc(-c2cn3cncc3c(=O)[nH]2)cc1` [Compound A2, 6-(4-tert-Butyl-phenyl)-7H-imidazo[1,5-a]pyrazin-8-one], for which the IC50 was < 300 nM.
`Cc1ncc2c(=O)[nH]c(-c3ccc(C(C)(C)C)cc3)cn12` [Compound A7, 6-(4-tert-butyl-phenyl)-3-methyl-7H-imidazo[1,5-a]pyrazin-8-one]: the IC50 is < 300 nM.
